According to US20230312587A1, “PTERIDINONE COMPOUNDS AND USES THEREOF” (Vertex Pharmaceutical Incorporated, priority 2018, published 2023):

Legend:
[1] = test system: HepG2 XBP1(u)-Luc cells; assay: HepG2 XBP1 reporter assay; assay type: cell-based; settings: Homo sapiens, 6 h
How it was run: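 Reporter cells are HepG2 stably carrying unspliced XBP1 fused to firefly luciferase, which becomes in-frame after IRE1alpha-mediated splicing. SteadyGlo luminescence was normalized to DMSO-treated cells for IC50 calculation.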

[2] = target: HEK293 membranes over-expressing WFS-1 (Homo sapiens (Human), UniProt O76024); assay: Radioligand displacement assay (tritiated Compound 136 probe); assay type: binding; settings: displacement of tritiated Compound 136
How it was run: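 WFS-1-overexpressing HEK293 membranes were preincubated 10 min with compound, then tritiated probe was added for 90 min at room temperature. Bound probe was collected by filtration on PEI-pretreated GF/B filters, washed and scintillation-counted. IC50 came from a 3-parameter fit of bound probe vs compound concentration.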

[3] = test system: Colo205-TCF/LEF-Luciferase (Luc) tumor; assay: In vivo inhibition of TCF/LEF reporter activity in Colo-205 tumors; parameters: concentration or dose not given beside the values; settings: TCF/LEF luciferase reporter in Colo-205 tumors, nu/nu mice, oral gavage
How it was run: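 Female nu/nu mice carried subcutaneous Colo205-TCF/LEF-luciferase tumours (200–500 mm^3), n=4 per group. Compound was given by oral gavage in 1:3:5:1 EtOH:DMSO:PEG-400:H2O at 10 ml/kg, with vehicle as control. Luciferase activity in tumour lysates (Steady-Glo) was normalised to BCA protein.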

Sequence of HEK293 membranes over-expressing WFS-1 (O76024 whole entry): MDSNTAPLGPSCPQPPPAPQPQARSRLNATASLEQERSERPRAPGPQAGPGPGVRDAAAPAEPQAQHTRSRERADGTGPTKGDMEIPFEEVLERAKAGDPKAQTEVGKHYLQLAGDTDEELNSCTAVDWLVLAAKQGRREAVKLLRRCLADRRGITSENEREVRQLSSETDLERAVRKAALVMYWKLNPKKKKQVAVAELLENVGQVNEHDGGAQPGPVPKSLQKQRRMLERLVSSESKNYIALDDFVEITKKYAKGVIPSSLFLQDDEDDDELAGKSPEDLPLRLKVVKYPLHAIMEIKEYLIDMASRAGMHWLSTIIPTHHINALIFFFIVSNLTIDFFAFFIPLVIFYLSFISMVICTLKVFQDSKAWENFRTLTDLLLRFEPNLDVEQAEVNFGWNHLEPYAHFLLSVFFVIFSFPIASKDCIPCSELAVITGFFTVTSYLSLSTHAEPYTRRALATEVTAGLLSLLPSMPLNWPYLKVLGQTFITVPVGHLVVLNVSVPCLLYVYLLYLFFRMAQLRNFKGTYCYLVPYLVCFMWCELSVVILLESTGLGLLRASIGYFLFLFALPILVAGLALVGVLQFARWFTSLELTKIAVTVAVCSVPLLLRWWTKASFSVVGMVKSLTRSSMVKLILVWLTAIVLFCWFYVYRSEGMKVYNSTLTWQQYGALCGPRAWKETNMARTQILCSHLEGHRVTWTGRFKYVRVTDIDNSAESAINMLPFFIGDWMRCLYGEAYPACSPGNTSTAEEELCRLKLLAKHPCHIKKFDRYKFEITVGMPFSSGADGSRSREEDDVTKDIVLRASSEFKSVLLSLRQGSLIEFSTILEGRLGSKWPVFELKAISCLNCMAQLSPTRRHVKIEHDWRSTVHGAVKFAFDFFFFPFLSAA

IC50 [1] [nM]	IC50 [2] [nM]	Compound	Percent Remaining Activity at 8 hrs after Dosing [3] [%]
600 to 2000	60 to 600	Cc1nc(NCc2cnn(CC3CCC3)c2)nc2c1N(C)C(=O)[C@H](C)N2C [Compound 7, (7S)-2-(((1-(cyclobutylmethyl)-1H-pyrazol-4-yl)methyl)amino)-4,5,7,8-tetramethyl-7,8-dihydropteridin-6(5H)-one]	–
≥ 10000	60 to 600	Cc1nc(N[C@H]2C[C@@H](Oc3cc(F)c(F)c(F)c3)C2)nc2c1NC(=O)[C@H](C)N2C [Compound 247, (7S)-4,7,8-trimethyl-2-((cis-3-(3,4,5-trifluorophenoxy)cyclobutyl)amino)-7,8-dihydropteridin-6(5H)-one]	–
600 to 2000	< 60	CC[C@H]1C(=O)Nc2cnc(NCc3cnn(Cc4ccc(C(F)(F)F)nc4)c3)nc2N1C [Compound 427, (7S)-7-ethyl-8-methyl-2-(((1-((6-(trifluoromethyl)pyridin-3-yl)methyl)-1H-pyrazol-4-yl)methyl)amino)-7,8-dihydropteridin-6(5H)-one]	–
600 to 2000	60 to 600	CN1C(=O)C(C)(C)N(C)c2nc(NCc3cnn(Cc4cccnc4C(F)(F)F)c3)ncc21 [Compound 237, 5,7,7,8-Tetramethyl-2-(((1-((2-(trifluoromethyl)pyridin-3-yl)methyl)-1H-pyrazol-4-yl)methyl)amino)-7,8-dihydropteridin-6(5H)-one]	–
–	60 to 600	Cc1nc(NCc2cnn(Cc3ccc(F)cc3)c2)nc2c1NC(=O)[C@H](C)N2C [Compound 4, (7S)-2-(((1-(4-fluorobenzyl)-1H-pyrazol-4-yl)methyl)amino)-4,7,8-trimethyl-7,8-dihydropteridin-6(5H)-one]	23
< 600	600 to 3000	Cc1nc(N[C@H]2CC[C@H](n3ccc(C(F)(F)F)n3)C2)nc2c1NC(=O)[C@H](C)N2C (single isomer, unassigned) [Compound 310]	–
600 to 2000	60 to 600	Cc1nc(N[C@H]2CC[C@H](Oc3ccc(C(F)(F)F)nc3)C2)nc2c1NC(=O)[C@H](C)N2C (single isomer, unassigned) [Compound 376]	–
–	60 to 600	Cc1nc(N[C@H]2C[C@H](Oc3cc(F)c(F)c(F)c3)C2)nc2c1NC(=O)[C@H](C)N2C [Compound 246, (7S)-4,7,8-trimethyl-2-((trans-3-(3,4,5-trifluorophenoxy)cyclobutyl)amino)-7,8-dihydropteridin-6(5H)-one]	18
2000 to 10000	60 to 600	Cc1nc(NCc2cnn(Cc3ccc(C(F)(F)F)nc3C(C)O)c2)nc2c1NC(=O)[C@H](C)N2C (stereo partly drawn) [Compound 419, (7S)-2-(((1-((2-((S)-1-hydroxyethyl)-6-(trifluoromethyl)pyridin-3-yl)methyl)-1H-pyrazol-4-yl)methyl)amino)-4,7,8-trimethyl-7,8-dihydropteridin-6(5H)-one]	–
≥ 10000	≥ 3000	Cc1ncc(Cn2cc(CNc3nc(C)c4c(n3)N(C)[C@@H](C)C(=O)N4)cn2)cn1 [Compound 163, (7S)-4,7,8-trimethyl-2-(((1-((2-methylpyrimidin-5-yl)methyl)-1H-pyrazol-4-yl)methyl)amino)-7,8-dihydropteridin-6(5H)-one]	–
< 600	< 60	Cc1nc(NCc2cnn(C[C@H](C)c3ccc(F)cc3)c2)nc2c1NC(=O)[C@H](C)N2C [Compound 96, (7S)-2-(((1-((R)-2-(4-fluorophenyl)propyl)-1H-pyrazol-4-yl)methyl)amino)-4,7,8-trimethyl-7,8-dihydropteridin-6(5H)-one]	–
< 600	60 to 600	Cc1nc(N[C@H]2C[C@H](Sc3cc(F)c(F)c(F)c3)C2)nc2c1NC(=O)[C@H](C)N2C [Compound 329, (7S)-4,7,8-trimethyl-2-((trans-3-((3,4,5-trifluorophenyl)thio)-cyclobutyl)amino)-7,8-dihydropteridin-6(5H)-one]	–
< 600	60 to 600	Cc1nc(NCc2cnn([C@@H]3CCN(c4ccc(F)cc4)C3)c2)nc2c1NC(=O)[C@H](C)N2C [Compound 170, (7S)-2-(((1-((R)-1-(4-fluorophenyl)pyrrolidin-3-yl)-1H-pyrazol-4-yl)methyl)amino)-4,7,8-trimethyl-7,8-dihydropteridin-6(5H)-one]	–
600 to 2000	60 to 600	Cc1nc(NCc2cnn([C@H]3CCN(C4CCC(F)(F)CC4)C3)c2)nc2c1NC(=O)[C@H](C)N2C [Compound 142, (7S)-2-(((1-((S)-1-(4,4-difluorocyclohexyl)pyrrolidin-3-yl)-1H-pyrazol-4-yl)methyl)amino)-4,7,8-trimethyl-7,8-dihydropteridin-6(5H)-one]	–
600 to 2000	60 to 600	Cc1nc(N[C@H]2C[C@H](Sc3ccc(F)cc3)C2)nc2c1N(C)C(=O)[C@H](C)N2C [Compound 307, (7S)-2-((trans-3-((4-fluorophenyl)thio)cyclobutyl)amino)-4,5,7,8-tetramethyl-7,8-dihydropteridin-6(5H)-one]	–
–	60 to 600	Cc1nc(N[C@H]2C[C@H](COc3cc(F)c(F)c(F)c3)C2)nc2c1NC(=O)[C@H](C)N2C [Compound 258, (7S)-4,7,8-trimethyl-2-((trans-3-((3,4,5-trifluorophenoxy)methyl)-cyclobutyl)amino)-7,8-dihydropteridin-6(5H)-one]	–
600 to 2000	< 60	Cc1nc(NCc2cnn(Cc3cncc(F)c3)c2)nc2c1NC(=O)[C@H](C(C)C)N2C [Compound 415, (7S)-2-(((1-((5-fluoropyridin-3-yl)methyl)-1H-pyrazol-4-yl)methyl)amino)-7-isopropyl-4,8-dimethyl-7,8-dihydropteridin-6(5H)-one]	–
≥ 10000	600 to 3000	Cc1nn(C)cc1Cn1cc(CNc2nc(C)c3c(n2)N(C)[C@@H](C)C(=O)N3)cn1 [Compound 139, (7S)-2-(((1-((1,3-dimethyl-1H-pyrazol-4-yl)methyl)-1H-pyrazol-4-yl)methyl)amino)-4,7,8-trimethyl-7,8-dihydropteridin-6(5H)-one]	–
–	60 to 600	(7S)-4,7,8-trimethyl-2-((trans-3-(3,4-difluorophenoxy)cyclobutyl)amino)-7,8-dihydropteridin-6(5H)-one [Compound 251]	–
600 to 2000	60 to 600	CC[C@H]1C(=O)Nc2cnc(NCc3cnn(Cc4ccc(F)cc4)c3)nc2N1C [Compound 9, (7S)-7-ethyl-2-(((1-(4-fluorobenzyl)-1H-pyrazol-4-yl)methyl)amino)-8-methyl-7,8-dihydropteridin-6(5H)-one]	–
600 to 2000	60 to 600	Cc1cc(F)ncc1Cn1cc(CNc2nc(C)c3c(n2)N(C)[C@@H](C)C(=O)N3)cn1 [Compound 94, (7S)-2-(((1-((6-fluoro-4-methylpyridin-3-yl)methyl)-1H-pyrazol-4-yl)methyl)amino)-4,7,8-trimethyl-7,8-dihydropteridin-6(5H)-one]	–
–	< 60	Cc1nc(N[C@H]2C[C@H](Oc3cc(F)c(F)c(F)c3)C2)nc2c1N(C)C(=O)[C@H](C)N2C [Compound 253, (7S)-4,5,7,8-tetramethyl-2-((trans-3-(3,4,5-trifluorophenoxy)cyclobutyl)amino)-7,8-dihydropteridin-6(5H)-one]	15
2000 to 10000	60 to 600	Cc1nc(NCc2ccc(-n3cc(C(F)(F)F)cn3)nc2)nc2c1NC(=O)[C@H](C)N2C [Compound 143, (S)-4,7,8-trimethyl-2-(((6-(4-(trifluoromethyl)-1H-pyrazol-1-yl)pyridin-3-yl)methyl)amino)-7,8-dihydropteridin-6(5H)-one]	–
–	< 60	COc1c(F)cc(Cn2cc(CNc3nc(C)c4c(n3)N(C)[C@@H](C)C(=O)N4)cn2)cc1F [Compound 46, (7S)-2-(((1-(3,5-difluoro-4-methoxybenzyl)-1H-pyrazol-4-yl)methyl)amino)-4,7,8-trimethyl-7,8-dihydropteridin-6(5H)-one]	20
–	60 to 600	Cc1nc(N[C@H]2C[C@@H](COc3cc(F)c(F)c(F)c3)C2)nc2c1NC(=O)[C@H](C)N2C [Compound 257, (7S)-4,7,8-Trimethyl-2-((cis-3-((3,4,5-trifluorophenoxy)methyl)cyclobutyl)-amino)-7,8-dihydropteridin-6(5H)-one]	30
–	60 to 600	Cc1nc(N[C@H]2C[C@H](Oc3ccc(F)cc3)C2)nc2c1N(C)C(=O)[C@H](C)N2C [Compound 250, (7S)-2-((trans-3-(4-fluorophenoxy)cyclobutyl)amino)-4,5,7,8-tetramethyl-7,8-dihydropteridin-6(5H)-one]	–
–	60 to 600	Cc1nc(N[C@@H]2CC[C@@H](Oc3cc(F)c(F)c(F)c3)C2)nc2c1N(C)C(=O)[C@H](C)N2C [Compound 272, (S)-4,5,7,8-tetramethyl-2-(((1R,3R)-3-(3,4,5-trifluorophenoxy)cyclopentyl)amino)-7,8-dihydropteridin-6(5H)-one]	14
–	60 to 600	Cc1nc(NCc2cnn(Cc3ccc(F)nc3)c2)nc2c1NC(=O)[C@H](C)N2C [Compound 77]	30
–	60 to 600	Cc1nc(NCc2cnn(Cc3ccc(F)cc3)c2)nc2c1N(C)C(=O)[C@H](C)N2C [Compound 1, (7S)-2-(((1-(4-fluorobenzyl)-1H-pyrazol-4-yl)methyl)amino)-4,5,7,8-tetramethyl-7,8-dihydropteridin-6(5H)-one]	32
